In one experiment the target is T1, PKC-γ (Homo sapiens, UniProt P05129).
T1 construct: purchased PanVera, Madison Wis; host or cells: baculovirus expression vector
The experiment is described as follows: Protein Kinase C Scintillation Proximity Assay (SPA), PKC-γ. In kind it is biochemical. To be noted: inhibition value, recombinant human isozyme, 1 μM ATP. As for the experimental part:
(§1) The binding activity of a compound for Protein Kinase C (PKC) was assessed using a homogeneous Scintillation Proximity Assay according to the procedure below.
(§2) The different human PKC isozymes (were obtained from PanVera, Madison Wis. and had been prepared as recombinant enzymes produced from a baculovirus expression vector) were added to a reaction mixture containing a test compound, 20 mM HEPES (pH 7.4), 100 μM CaCl2, 10 mM MgCl2, 100 μg/mL phosphatidylserine, 20 μg/mL diacylglycerol, 1 μM ATP, 0.8 μCi (^33P)ATP, and 5 μg/mL biotinylated substrate peptide (Jing Zhao et al., J. Bio. Chem., 1998, 273, 23072). The reaction was incubated for 15 min at 30° C. Reactions were terminated by the addition of streptavidin-coated SPA beads (Amersham) in a solution containing 1 mM EGTA, 10 mM EDTA and 100 μM ATP. Beads were allowed to settle overnight and the plates read in a Wallac MICROBETA scintillation counter (PerkinElmer Life sciences, Wellesley, Mass.).
(§3) Values for inhibition of various PKC isozymes and GSK 3-β by certain compounds of the invention tested in the PKC SPA and GSK 3-β assays are shown in Table 1.
For orientation: Scintillation proximity formats need no separation of bound from free tracer.

In a further experiment the target is PKC α (Homo sapiens, UniProt P17252). The experiment in a line: Protein Kinase C Scintillation Proximity Assay (SPA), PKC-α. In kind it is biochemical. Also on record: purchased PanVera, Madison Wis; host or cells: baculovirus expression vector. To be noted: inhibition value, recombinant human isozyme, 1 μM ATP. On the procedure:
as §1
The reaction was incubated for 15 min at 30° C. Reactions were terminated by the addition of streptavidin-coated SPA beads (Amersham) in a solution containing 1 mM EGTA, 10 mM EDTA and 100 μM ATP. Beads were allowed to settle overnight and the plates read in a Wallac MICROBETA scintillation counter (PerkinElmer Life sciences, Wellesley, Mass.).

Another experiment deals with T2, GSK 3-β (Oryctolagus cuniculus, UniProt G1T8E2).
T2 construct: purchased New England Biolabs, Beverly Mass
The experiment is described as follows: Glycogen Synthase Kinase 3-β Assay. It is filed as biochemical, rabbit. Particulars: for IC50: inhibition value, recombinant rabbit GSK 3-β, PPI-2 substrate; for GSK 3-β % @ 1 μM: at 1 μM; for GSK 3-β % @ 0.1 μM: at 0.1 μM. On the procedure: The inhibitory activity of a compound against Glycogen Synthase Kinase 3-β (GSK 3-β) activity was assessed using a recombinant rabbit GSK 3-β according to the procedure below.
The mixture was reacted for 90 minutes at 30° C. to allow phosphorylation of the PPI-2 protein and then the protein in the reaction was precipitated using 10% trichloroacetic acid (TCA). The precipitated protein was collected on filter plates (MultiScreen-DV, Millipore, Bedford Mass.), which were subsequently washed. Finally, the radioactivity was quantified using a TopCount Scintillation Counter (Packard, Meridian Conn.). […] Staurosporine or Valproate (both available from several commercial sources), known inhibitors of GSK-3-β, were used as a positive control for screening.

The target of the next experiment is T3, PKC-βI (Homo sapiens, UniProt P05771).
T3 construct: purchased PanVera, Madison Wis; host or cells: baculovirus expression vector
The experiment in a line: Protein Kinase C Scintillation Proximity Assay (SPA), PKC-βI. In kind it is biochemical. Particulars: inhibition value, recombinant human isozyme, 1 μM ATP. On the procedure: as §1, §2, §3

The next experiment has as its target T4, PKC-βII (Homo sapiens, UniProt P05771).
T4 construct: purchased PanVera, Madison Wis; host or cells: baculovirus expression vector
The experiment in a line: Protein Kinase C Scintillation Proximity Assay (SPA), PKC-βII. It is filed as biochemical. Particulars: inhibition value, recombinant human isozyme, 1 μM ATP. As for the experimental part: as §1, §2, §3

The next experiment relates to L6 muscle cells. The experiment in a line: Cell-Based GSK 3-β Assay (glycogen content of L6 muscle cells). Particulars: for 14C-Glucose Incorporation (dpm): L6 cells, 2 hours. On the procedure: Glycogen content of L6 muscle cells was measured according to the method described in Berger and Hayes, Anal. Biochem., 1998, 261, 159-163.
Briefly, L6 cells were serum starved overnight in alpha-MEM containing 0.1%. On the following day, cells were washed three times with 300 μL KRPH buffer (150 mM NaCl, 5 mM KCl, 2.9 mM Na2HPO4, 1.25 mM MgSO4, 1.2 mM CaCl2, 10 mM HEPES, pH 7.4) and labeled with 200 μL alpha-MEM containing 5.5 mM ^14C-Glucose (0.1 μCi) in the presence of vehicle (DMSO) or compounds. After 2 hours, cells were washed three times with ice-cold PBS and glycogen was precipitated for 2 hours using ice-cold 66% EtOH. Precipitated glycogen was then washed three times with ice-cold 66% EtOH and ^14C-glycogen was quantified using a TopCount (Packard).
Compounds were tested in separate experiments at the dose levels shown. Where shown, the 0.0 μM dose was used as a control.

For orientation: IC50 means the concentration that gives 50% inhibition.

T4 sequence (P05771 1-673 isoform P05771-2): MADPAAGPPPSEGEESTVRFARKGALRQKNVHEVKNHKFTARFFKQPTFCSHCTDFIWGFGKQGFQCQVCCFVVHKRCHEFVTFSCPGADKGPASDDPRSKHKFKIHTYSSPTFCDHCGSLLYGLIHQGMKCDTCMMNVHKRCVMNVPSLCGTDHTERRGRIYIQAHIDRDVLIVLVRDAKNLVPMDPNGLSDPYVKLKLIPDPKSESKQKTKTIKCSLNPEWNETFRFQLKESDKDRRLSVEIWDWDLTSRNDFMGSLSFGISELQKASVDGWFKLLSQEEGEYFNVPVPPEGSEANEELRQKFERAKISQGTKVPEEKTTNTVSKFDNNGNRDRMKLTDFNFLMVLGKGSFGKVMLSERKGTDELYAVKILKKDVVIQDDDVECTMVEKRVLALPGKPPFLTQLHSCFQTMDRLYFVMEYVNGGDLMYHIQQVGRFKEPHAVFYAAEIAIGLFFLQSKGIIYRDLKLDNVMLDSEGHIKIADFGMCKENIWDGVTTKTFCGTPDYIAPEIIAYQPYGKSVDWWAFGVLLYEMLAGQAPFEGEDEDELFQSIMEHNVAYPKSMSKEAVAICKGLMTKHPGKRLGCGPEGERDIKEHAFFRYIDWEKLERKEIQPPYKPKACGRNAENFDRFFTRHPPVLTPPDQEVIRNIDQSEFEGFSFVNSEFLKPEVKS
T2 sequence (G1T8E2 1-432): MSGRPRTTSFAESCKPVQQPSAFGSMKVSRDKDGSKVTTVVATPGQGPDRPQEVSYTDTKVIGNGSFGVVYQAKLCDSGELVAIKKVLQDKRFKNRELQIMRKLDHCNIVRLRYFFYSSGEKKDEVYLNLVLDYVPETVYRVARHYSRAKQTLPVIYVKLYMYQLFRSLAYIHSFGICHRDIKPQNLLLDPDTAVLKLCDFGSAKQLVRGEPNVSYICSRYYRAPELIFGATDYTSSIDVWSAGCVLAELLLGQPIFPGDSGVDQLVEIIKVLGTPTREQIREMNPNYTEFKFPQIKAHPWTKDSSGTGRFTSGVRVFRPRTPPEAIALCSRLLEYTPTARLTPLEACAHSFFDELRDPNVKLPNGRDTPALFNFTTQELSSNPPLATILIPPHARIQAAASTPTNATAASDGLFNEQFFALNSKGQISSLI
T3 sequence (P05771 whole entry): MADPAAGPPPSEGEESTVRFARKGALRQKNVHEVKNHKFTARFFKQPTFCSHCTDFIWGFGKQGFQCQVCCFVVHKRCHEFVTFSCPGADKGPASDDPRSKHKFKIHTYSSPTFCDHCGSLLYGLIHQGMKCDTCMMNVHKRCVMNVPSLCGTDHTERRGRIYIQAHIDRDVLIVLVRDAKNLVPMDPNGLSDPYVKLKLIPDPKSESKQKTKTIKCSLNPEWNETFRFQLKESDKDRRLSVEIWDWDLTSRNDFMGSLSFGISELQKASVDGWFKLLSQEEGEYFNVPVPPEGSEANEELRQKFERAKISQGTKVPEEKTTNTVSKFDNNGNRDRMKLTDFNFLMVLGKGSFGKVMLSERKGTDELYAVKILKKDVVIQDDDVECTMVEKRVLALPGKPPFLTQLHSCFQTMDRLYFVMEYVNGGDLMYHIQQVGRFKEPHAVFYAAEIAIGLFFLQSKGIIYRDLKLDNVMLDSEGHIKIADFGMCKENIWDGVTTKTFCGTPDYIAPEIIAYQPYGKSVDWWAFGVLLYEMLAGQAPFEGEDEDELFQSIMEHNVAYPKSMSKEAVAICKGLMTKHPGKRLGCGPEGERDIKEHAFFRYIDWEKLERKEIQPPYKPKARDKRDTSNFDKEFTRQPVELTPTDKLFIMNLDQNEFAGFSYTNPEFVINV

For `O=C1NC(=O)C2=C1c1cn(c3ccccc13)CCOCCOCCn1cc2c2ccccc21` [Cpd 4], the IC50 on PKC-γ came to 3460 nM; at PKC α, 1220 nM; at GSK 3-β, 102 nM; on PKC-βI it was 1590 nM; at PKC-βII, 99 nM.
Consider `CN1CCOCCn2cc(c3ccccc32)C2=C(C(=O)NC2=O)c2cn(c3ccccc23)CCOCC1` [Cpd 13], for which the IC50 was 370 nM on PKC-γ, 50 nM on PKC α and 40 nM at PKC-βII.
Take `O=C1NC(=O)C2=C1c1cn(c3ccccc13)Cc1cccc(n1)Cn1cc2c2cccnc21` [Cpd 9]: the IC50 was determined as 228 nM on PKC-γ; 319 nM on PKC α; 164 nM at GSK 3-β; 338 nM at PKC-βI; 35 nM at PKC-βII.
`O=C1NC(=O)C2=C1c1cn(c3ncccc13)CCOCCOCCOCCOCCOCCn1cc2c2cccnc21` [Cpd 3]: the IC50 on PKC-γ is more than 100000 nM; on PKC α it was more than 100000 nM; at GSK 3-β, 33 nM; on PKC-βI, more than 100000 nM; at PKC-βII, more than 100000 nM.
Regarding `CC(C)N1CCOCCn2cc(c3ccccc32)C2=C(C(=O)NC2=O)c2cn(c3ccccc23)CCOCC1` [Cpd 14], the half-maximal inhibitory concentration (IC50) on PKC-γ amounted to 34 nM; at PKC α, 19 nM; at GSK 3-β it was 76 nM; on PKC-βII, 15 nM.
As to `CCN1CCCCCn2cc(c3cccnc32)C2=C(C(=O)NC2=O)c2cn(c3ncccc23)CCCC1` [Cpd 23], the “GSK 3-β % @ 1 μM” value on GSK 3-β amounted to 46% @ 1 μM.
`O=C1NC(=O)C2=C1c1cn(c3ncccc13)CCOCCSCCOCCn1cc2c2cccnc21` [Cpd 19]: the IC50 at GSK 3-β stood at 110 nM.
As to `O=C1CCCCCCn2cc(c3cccnc32)C2=C(C(=O)NC2=O)c2cn(c3ncccc23)CCCC1` [Cpd 25], the IC50 on GSK 3-β was 80 nM.
Still for that read-out and setting: then `O=C1CCCCn2cc(c3cccnc32)C2=C(C(=O)NC2=O)c2cn(c3ncccc23)CCCC1` [Cpd 26], with 90 nM.
`O=C1NC(=O)C2=C1c1cn(c3ncccc13)CCOCCOCCn1cc2c2cccnc21` [Cpd 28]: the “GSK 3-β % @ 0.5 μM” value on GSK 3-β (at 0.5 μM) is reported as 48% @ 0.5 μM.
Consider `O=C1NC(=O)C2=C1c1cn(c3ccccc13)CCOCCOCCOCCn1cc2c2ccccc21` [Cpd 5], for which the IC50 on PKC-γ was found to be 1350 nM; at PKC α, 412 nM; on GSK 3-β, 49 nM; on PKC-βI it was 349 nM; at PKC-βII, 16 nM. The “14C-Glucose Incorporation (dpm)” value in the experiment with L6 muscle cells (dose 0.01 μM) amounted to 2884 dpm; in the experiment on L6 muscle cells (dose 0.1 μM) it was 2988 dpm; in the experiment on L6 muscle cells (dose 0.3 μM), 3339 dpm; in the experiment on L6 muscle cells (dose 3 μM, 0.0 μM control Cpd 1 1640, Cpd 2 2078) it was 3438 dpm; with L6 muscle cells (dose 10 μM, 0.0 μM control Cpd 1 1640, Cpd 2 2078), 4700 dpm. Besides, the “glycogen synthesis in L6 skeletal muscle cells” value in the experiment with L6 muscle cells (upon exposure to compound, result in words) is on record as “increased glycogen synthesis”.
In the case of `CN1CCN(C)CCn2cc(c3ccccc32)C2=C(C(=O)NC2=O)c2cn(c3ccccc23)CCN(C)CC1` [Cpd 15], the IC50 at PKC-γ was 22 nM; at PKC α, 42 nM; on GSK 3-β it was 93 nM; on PKC-βII, 27 nM.
Consider `O=C1NC(=O)C2=C1c1cn(c3ccccc13)CCOCCN(CCO)CCOCCn1cc2c2ccccc21` [Cpd 30], for which the IC50 on GSK 3-β was found to be 64 nM; at PKC-βII it was 11 nM.
With `O=C1NC(=O)C2=C1c1cn(c3ncccc13)CCCCCNCCCCCn1cc2c2cccnc21` [Cpd 20], the IC50 on GSK 3-β was found to be 610 nM.
Consider `O=C1NC(=O)C2=C1c1cn(c3ncccc13)C[C@H](O)CCCCCC[C@@H](O)Cn1cc2c2cccnc21` [Cpd 27], for which the IC50 on GSK 3-β turned out to be 1180 nM.
Take `O=C1NC(=O)C2=C1c1cn(c3ccccc13)CCOCCOCCOCCOCCn1cc2c2ccccc21` [Cpd 6]: the half-inhibitory concentration (IC50) on PKC-γ was 4000 nM; on PKC α it was 2560 nM; on GSK 3-β, 45 nM; on PKC-βI, 1480 nM; at PKC-βII, 212 nM.
`CCN1CCCCCn2cc(c3cccnc32)C2=C(C(=O)NC2=O)c2cn(c3ncccc23)CCCCC1` [Cpd 21]: on GSK 3-β, the IC50 was 1440 nM.
On to `CN1CCCn2cc(c3ccccc32)C2=C(C(=O)NC2=O)c2cn(c3ccccc23)CCOCCOCC1` [Cpd 31], for which the IC50 at PKC-γ amounted to 24 nM; at PKC α, 14 nM; on PKC-βII, 7 nM.
For `O=C1NC(=O)C2=C1c1cn(c3ncccc13)CCCCCNCCCCn1cc2c2cccnc21` [Cpd 22], the “GSK 3-β % @ 1 μM” value at GSK 3-β is on record as 30% @ 1 μM.
With `O=C1NC(=O)C2=C1c1cn(c3ncccc13)CCCCc1cccc(n1)CCCCn1cc2c2cccnc21` [Cpd 24], the IC50 on GSK 3-β was 210 nM.
As to `COCCN1CCOCCn2cc(c3ccccc32)C2=C(C(=O)NC2=O)c2nn(c3ccccc23)CCOCC1` [Cpd 29], the “GSK 3-β % @ 0.1 μM” value on GSK 3-β was 30% @ 0.1 μM. Besides, the IC50 on PKC-βII is 369 nM.
For `O=C1NC(=O)C2=C1c1cn(c3ccccc13)CCOCCOCCOCCOCCOCCn1cc2c2ccccc21` [Cpd 7], the 50% inhibitory concentration (IC50) at PKC-γ was 3260 nM; at PKC α, 2590 nM; on GSK 3-β, 33 nM; on PKC-βI it was 3070 nM; on PKC-βII, 285 nM.
Turning to `CCN1CCOCCn2cc(c3ccccc32)C2=C(C(=O)NC2=O)c2nn(c3ccccc23)CCOCC1` [Cpd 17], the “GSK 3-β % @ 0.2 μM” value at GSK 3-β (at 0.2 μM) was 31% @ 0.2 μM. The IC50 on PKC-βII came out at 385 nM.
Take `O=C1NC(=O)C2=C1c1cn(c3ccccc13)Cc1cccc(c1)Cn1cc2c2cccnc21` [Cpd 8]: the IC50 was 783 nM on PKC-γ; 1530 nM on PKC α; 233 nM on GSK 3-β; 1780 nM at PKC-βI; 288 nM on PKC-βII.
`CCN1CCOCCn2cc(c3ccccc32)C2=C(C(=O)NC2=O)c2cn(c3ccccc23)CCOCC1` [Cpd 12]: the half-maximal inhibitory concentration (IC50) came to 150 nM at PKC-γ, 20 nM on PKC α, 33 nM at GSK 3-β and 8 nM at PKC-βII.
In the case of `CN1CCOCCn2cc(c3ccccc32)C2=C(C(=O)NC2=O)c2nn(c3ccccc23)CCOCC1` [Cpd 16], on GSK 3-β, the “GSK 3-β % @ 0.1 μM” value was determined as 37% @ 0.1 μM. The concentration for half-maximal inhibition (IC50) on PKC-βII stood at 63 nM.
As to `CCN1CCOCCn2cc(c3cccnc32)C2=C(C(=O)NC2=O)c2cn(c3ncccc23)CCOCC1` [Cpd 18], the IC50 on GSK 3-β turned out to be 9200 nM.

The values are drawn from patent US6828327B2, “Macroheterocylic compounds useful as kinase inhibitors” (Ortho-McNeil Pharmaceutical, Inc., priority 2000, dated 2004).
